# Measured values as given in EPA's ToxRefDB 2.
# Key:
# mouse [1] = settings: Subchronic oral toxicity in rodents, b6c3f1, Gavage/Intubation, dose end: 20 week, group: systemic, systemic / pathology microscopic / liver / hyperplasia + systemic / pathology microscopic / stomach / hyperkeratosis + systemic / pathology …
# mouse [2] = settings: Carcinogenicity; b6c3f1; Oral; Gavage/Intubation; dose end: 2 year; group: systemic; systemic / pathology microscopic / stomach / carcinoma + systemic / pathology microscopic / stomach / papilloma + systemic / in life …
# rat [3] = settings: Carcinogenicity, fischer, Oral, Gavage/Intubation, dose end: 2 year, group: systemic
# rat [4] = settings: Combined chronic toxicity/carcinogenicity; sprague dawley; Oral; Gavage/Intubation; dose end: 52 week; group: systemic; systemic / pathology microscopic / stomach / [other] + systemic / pathology microscopic / stomach / carcinoma + systemic / pathology …
# rat [5] = settings: Subchronic oral toxicity in rodents, fischer, Gavage/Intubation, dose end: 24 week, group: systemic
# rat [6] = settings: Multigenerational reproductive toxicity study, sprague dawley, Oral, Gavage/Intubation, dose end: 2 generation
# rat [7] = settings: Combined chronic toxicity/carcinogenicity, sprague dawley, Oral, Gavage/Intubation, dose end: 104 week
# rat [8] = settings: Subchronic oral toxicity in rodents, sprague dawley, Gavage/Intubation, dose end: 90 day
# mouse [9] = settings: Carcinogenicity; cd1; Oral; Feed; dose end: 18 month; group: systemic; systemic / in life observation / body weight / body weight + systemic / in life observation / body weight / body weight gain
# rabbit = settings: Prenatal developmental toxicity study, new zealand white, Oral, Gavage/Intubation, dose end: 19 GD, group: maternal
# rat [10] = settings: Prenatal developmental toxicity study, sprague dawley, Oral, Gavage/Intubation, dose end: 15 GD
# mouse [11] = settings: Subchronic oral toxicity in rodents, b6c3f1, Gavage/Intubation, dose end: 13 week, group: systemic
# rat [12] = settings: Combined chronic toxicity/carcinogenicity, fischer, Oral, Gavage/Intubation, dose end: 105 week, group: systemic
# rat [13] = settings: Subchronic oral toxicity in rodents, fischer, Gavage/Intubation, dose end: 13 week, group: systemic
# rat [14] = settings: Fertility (Segment I), sprague dawley, Oral, Gavage/Intubation, dose end: 0 day
# rat [15] = settings: Multigenerational reproductive toxicity study, sprague dawley, Oral, Gavage/Intubation, dose end: 2 generation; remark: listed apart in the source
# mouse [16] = settings: Combined chronic toxicity/carcinogenicity, b6c3f1, Oral, Gavage/Intubation, dose end: 104 week, group: systemic
# [17] = systemic / pathology microscopic / blood / leukemia + systemic / pathology microscopic / stomach / carcinoma + systemic / pathology …
# [18] = systemic / pathology microscopic / stomach / carcinoma + systemic / pathology microscopic / stomach / papilloma + systemic / pathology …
# [19] = systemic / in life observation / body weight / body weight gain + systemic / in life observation / mortality / mortality + systemic / …
# [20] = group: cholinesterase, cholinesterase / cholinesterase / cholinesterase / plasma cholinesterase (che)
# [21] = group: offspring, developmental / offspring survival late / lactation index / lactation index + developmental / offspring survival late / viability index / …
# [22] = group: offspring, systemic / in life observation / body weight / offspring (pup) weight
# [23] = group: reproductive, reproductive / reproductive performance / estrous cycle / corpora lutea
# [24] = group: reproductive, reproductive / reproductive performance / estrous cycle / corpora lutea + reproductive / reproductive performance / fertility / fertility + …
# [25] = group: cholinesterase, cholinesterase / cholinesterase / cholinesterase / brain cholinesterase (che) + cholinesterase / cholinesterase / cholinesterase / plasma …
# [26] = group: cholinesterase, cholinesterase / cholinesterase / cholinesterase / erythrocyte cholinesterase (che)
# [27] = group: systemic, systemic / pathology microscopic / liver / adenoma/carcinoma combined
# [28] = group: cholinesterase, cholinesterase / cholinesterase / cholinesterase / plasma cholinesterase (che) + cholinesterase / cholinesterase / cholinesterase / brain …
# [29] = group: systemic, systemic / in life observation / clinical signs / pupillary function (dilation or constriction)
# [30] = group: systemic, systemic / in life observation / clinical signs / pupillary function (dilation or constriction) + systemic / in life observation / body …
# [31] = reproductive / offspring survival early / offspring survival early other / NOS
# [32] = group: developmental, developmental / developmental malformation / ureter / distended
# [33] = group: maternal, systemic / in life observation / clinical signs / general pallor + systemic / in life observation / clinical signs / pale and/or opaque eyes…
# [34] = systemic / clinical chemistry / thyroxine (t4) / thyroxine (t4), total + systemic / hematology / reticulocyte / reticulocyte + systemic / …
# [35] = systemic / pathology microscopic / kidney / mineralization + systemic / pathology microscopic / kidney / nephropathy
# [36] = systemic / in life observation / body weight / body weight + systemic / pathology gross / sperm measure / sperm motility
# [37] = systemic / in life observation / body weight / body weight + systemic / pathology microscopic / pituitary gland / hyperplasia + systemic / …
# [38] = group: maternal, reproductive / reproductive performance / fertility / fertility
# [39] = group: parental, systemic / in life observation / body weight / body weight gain + systemic / in life observation / food consumption / food consumption + …
# [40] = group: parental, systemic / pathology microscopic / testes / delayed spermiation, retained spermatids + systemic / pathology microscopic / testes / immature …
# [41] = group: parental, systemic / in life observation / body weight / body weight + systemic / in life observation / body weight / dam weight + systemic / in life …
# [42] = group: parental, systemic / in life observation / water consumption / water consumption + systemic / pathology gross / sperm measure / sperm morphology
# [43] = group: reproductive, reproductive / offspring survival early / live fetuses / live fetuses
# [44] = group: reproductive, reproductive / offspring survival early / live fetuses / live fetuses + reproductive / reproductive performance / gestational length / …
# [45] = systemic / pathology microscopic / liver / eosinophilic focus + systemic / pathology microscopic / liver / clear cell focus
# [46] = systemic / pathology microscopic / liver / eosinophilic focus + systemic / pathology microscopic / liver / clear cell focus + systemic / …
smiles,measurement,setting,value
c1ccc(C2CO2)cc1 (centres undefined) [Styrene oxide],LEL,mouse [1],900 mg/kg/day
same,LOAEL,mouse [1],> 900 mg/kg/day
same,NEL,mouse [1],600 mg/kg/day
same,NOAEL,mouse [1],≥ 900 mg/kg/day
same,LEL,mouse [2],375 mg/kg/day
same,LOAEL,mouse [2],> 750 mg/kg/day
same,NEL,mouse [2],< 375 mg/kg/day
same,NOAEL,mouse [2],≥ 750 mg/kg/day
same,LOAEL,rat [3]; [17],> 550 mg/kg/day
same,NOAEL,rat [3]; [17],≥ 550 mg/kg/day
same,LEL,rat [3]; [18],275 mg/kg/day
same,NEL,rat [3]; [18],< 275 mg/kg/day
same,LEL,rat [4],50 mg/kg/day
same,LOAEL,rat [4],> 250 mg/kg/day
same,NEL,rat [4],< 50 mg/kg/day
same,NOAEL,rat [4],≥ 250 mg/kg/day
same,LOAEL,rat [5]; [19],> 3000 mg/kg/day
same,NEL,rat [5]; [19],360 mg/kg/day
same,NOAEL,rat [5]; [19],≥ 3000 mg/kg/day
same,LEL,rat [5]; systemic / pathology microscopic / liver / hyperplasia,750 mg/kg/day
COC(=O)C=C(C)OP(=O)(OC)OC [Mevinphos],LEL,rat [6]; [20],0.05 mg/kg/day
same,LOAEL,rat [6]; [20],0.05 mg/kg/day
same,NEL,rat [6]; [20],< 0.05 mg/kg/day
same,NOAEL,rat [6]; [20],< 0.05 mg/kg/day
same,LOAEL,rat [6]; [21],> 0.5 mg/kg/day
same,NOAEL,rat [6]; [21],≥ 0.5 mg/kg/day
same,LEL,rat [6]; [22],0.05 mg/kg/day
same,NEL,rat [6]; [22],< 0.05 mg/kg/day
same,NEL,"rat [6]; group: parental, systemic / in life observation / clinical signs / ataxia + systemic / in life observation / clinical signs / oral discharge + systemic / in …",0.1 mg/kg/day
same,NOAEL,"rat [6]; group: parental, systemic / organ weight / ovary / relative to body weight + systemic / in life observation / body weight / body weight",0.1 mg/kg/day
same,LOAEL,"rat [6]; group: parental, systemic / organ weight / ovary / relative to body weight + systemic / organ weight / testes / absolute",0.5 mg/kg/day
same,LEL,"rat [6]; group: parental, systemic / organ weight / ovary / relative to body weight + systemic / organ weight / testes / absolute + systemic / in life observation / …",0.5 mg/kg/day
same,NEL,rat [6]; [23],0.1 mg/kg/day
same,NOAEL,rat [6]; [23],0.1 mg/kg/day
same,LEL,rat [6]; [24],0.5 mg/kg/day
same,LOAEL,rat [6]; [24],0.5 mg/kg/day
same,LOAEL,rat [7]; [25],0.35 mg/kg/day
same,NOAEL,rat [7]; [25],0.025 mg/kg/day
same,LEL,rat [7]; [26],0.025 mg/kg/day
same,NEL,rat [7]; [26],< 0.025 mg/kg/day
same,LEL,rat [7]; [27],0.6 mg/kg/day
same,LOAEL,rat [7]; [27],> 0.6 mg/kg/day
same,NEL,rat [7]; [27],0.35 mg/kg/day
same,NOAEL,rat [7]; [27],≥ 0.6 mg/kg/day
same,LEL,rat [8]; [20],0.056 mg/kg/day
same,LOAEL,rat [8]; [20],0.056 mg/kg/day
same,NEL,rat [8]; [28],0.011 mg/kg/day
same,NOAEL,rat [8]; [28],0.011 mg/kg/day
same,LEL,rat [8]; [29],0.056 mg/kg/day
same,LOAEL,rat [8]; [29],0.056 mg/kg/day
same,NEL,rat [8]; [30],0.011 mg/kg/day
same,NOAEL,rat [8]; [30],0.011 mg/kg/day
same,LEL,mouse [9],3.7 mg/kg/day
same,LOAEL,mouse [9],3.7 mg/kg/day
same,NEL,mouse [9],1.5 mg/kg/day
same,NOAEL,mouse [9],1.5 mg/kg/day
O=C1c2ccccc2C(=O)C1C(=O)C(c1ccccc1)c1ccc(Cl)cc1 (centres undefined) [Chlorophacinone],LOAEL,rabbit; [31],0.025 mg/kg/day
same,NOAEL,rabbit; [31],0.01 mg/kg/day
same,LEL,rabbit; reproductive / offspring survival early / offspring survival early other / NOS + systemic / in life observation / clinical signs / red or …,0.025 mg/kg/day
same,NEL,"rabbit; systemic / in life observation / clinical signs / red or crusty deposits around eyes, ears, nose, or mouth + systemic / in life observation…",0.01 mg/kg/day
same,LEL,rat [10]; [32],0.0125 mg/kg/day
same,LOAEL,rat [10]; [32],0.0125 mg/kg/day
same,NEL,rat [10]; [32],< 0.0125 mg/kg/day
same,NOAEL,rat [10]; [32],< 0.0125 mg/kg/day
same,LEL,rat [10]; [33],0.1 mg/kg/day
same,LOAEL,rat [10]; [33],0.1 mg/kg/day
same,NEL,rat [10]; [33],0.05 mg/kg/day
same,NOAEL,rat [10]; [33],0.05 mg/kg/day
O=C(O)c1cc(N=Nc2ccc(S(=O)(=O)Nc3ccccn3)cc2)ccc1O [Sulfasalazine],LEL,mouse [11]; [34],675 mg/kg/day
same,NEL,mouse [11]; [34],< 675 mg/kg/day
same,LOAEL,mouse [11]; systemic / pathology microscopic / liver / hypertrophy,1350 mg/kg/day
same,NOAEL,mouse [11]; systemic / pathology microscopic / liver / hypertrophy + systemic / clinical chemistry / alanine aminotransferase (alt/sgpt) / alanine …,675 mg/kg/day
same,NOAEL,rat [12]; systemic / organ weight / kidney / absolute + systemic / pathology microscopic / kidney / hyperplasia,168 mg/kg/day
same,LOAEL,rat [12]; systemic / organ weight / kidney / absolute + systemic / pathology microscopic / kidney / hyperplasia + systemic / in life observation / …,338 mg/kg/day
same,LEL,rat [12]; [35],84 mg/kg/day
same,NEL,rat [12]; [35],< 84 mg/kg/day
same,LEL,rat [13]; [36],84 mg/kg/day
same,NEL,rat [13]; [36],< 84 mg/kg/day
same,LOAEL,rat [13]; [37],338 mg/kg/day
same,NOAEL,rat [13]; [37],169 mg/kg/day
same,LEL,rat [14]; [38],600 mg/kg/day
same,LOAEL,rat [14]; [38],> 600 mg/kg/day
same,NEL,rat [14]; [38],300 mg/kg/day
same,NOAEL,rat [14]; [38],≥ 600 mg/kg/day
same,LOAEL,rat [14]; [39],> 600 mg/kg/day
same,NOAEL,rat [14]; [39],≥ 600 mg/kg/day
same,LEL,rat [14]; [40],150 mg/kg/day
same,NEL,rat [14]; [40],< 150 mg/kg/day
same,LEL,rat [15]; [22],100 mg/kg/day
same,LOAEL,rat [15]; [22],> 400 mg/kg/day
same,NEL,rat [15]; [22],< 100 mg/kg/day
same,NOAEL,rat [15]; [22],≥ 400 mg/kg/day
same,LOAEL,rat [15]; [41],> 400 mg/kg/day
same,NOAEL,rat [15]; [41],≥ 400 mg/kg/day
same,LEL,rat [15]; [42],100 mg/kg/day
same,NEL,rat [15]; [42],< 100 mg/kg/day
same,LEL,rat [15]; [43],100 mg/kg/day
same,NEL,rat [15]; [43],< 100 mg/kg/day
same,LOAEL,rat [15]; [44],> 400 mg/kg/day
same,NOAEL,rat [15]; [44],≥ 400 mg/kg/day
same,LOAEL,mouse [16]; [45],675 mg/kg/day
same,NOAEL,mouse [16]; [45],< 675 mg/kg/day
same,LEL,mouse [16]; [46],675 mg/kg/day
same,NEL,mouse [16]; [46],< 675 mg/kg/day
